What all share (type): cell-based
The test system of assay [1] is Enterococcus faecalis ATCC 29212. Put plainly: MIC, broth microdilution (direct antibacterial activity). The note with it: ATCC29212, E. faecalis ATCC 29212, compound alone, 18-24 h, read-out: MIC. As to the method: (§1) Growth inhibition or killing of bacteria was investigated using conventional methods widely described in the scientific literature. Parameters such as the Minimum Inhibitory Concentration (MIC) were determined as described in Clinical Laboratory Standard Institute (CLSI) document M07 “Methods for Dilution Antimicrobial Susceptibility Tests for Bacteria That Grow Aerobically, 11th Edition” (2018). Synergistic activity of the compounds described in the present specification were determined by measuring the variation of the MIC's compound in the absence and presence of a sub-inhibitory concentration of a suitable antibacterial agent, such as polymyxin E1. Furthermore, the Fractional Inhibitory Concentrations (FICs) were measured using a chequerboard analysis to determine the average FIC index (FICI), whose value is known to characterize the interaction between two compounds and/or drugs (≤0.5, synergistic interaction; >0.5 and <2, no interaction, additive effect; ≥2, antagonistic interaction). Furthermore, the selectivity of the compounds was investigated by measuring their cytotoxic effect on mammalian cell lines (e.g. HeLa cells).
(§2) The MIC values were determined using the broth microdilution method as described in document M07 using Mueller-Hinton broth as culture medium and an initial bacterial inoculum size of 5×10^5 CFU/mL, with a final volume of 100 μL per well in a 96-well microplate. Bacterial strains were Bacillus subtilis ATCC 6633, Enterococcus faecalis ATCC 29212, Streptococcus pyogenes ATCC 12344 and Staphylococcus aureus ATCC 25923. The tested compound concentration ranged from 512 to 0.25 mg/L. Plates were incubated for 18-24 hours at 35±2° C. prior to results analysis.

Assay [2] relates to Staphylococcus aureus ATCC 25923. The description is as above. The note with it: ATCC25923, S. aureus ATCC 25923, compound alone, 18-24 h, read-out: MIC. How it is done: as §1, §2
The subject of assay [3] is Streptococcus pyogenes ATCC 12344. Described as above. The note with it: ATCC12344, S. pyogenes ATCC 12344, compound alone, 18-24 h, read-out: MIC. How it is done: as §1, §2
The test system of assay [4] is Bacillus subtilis ATCC 6633. Described as above. The note with it: ATCC6633, B. subtilis ATCC 6633, compound alone, 18-24 h, read-out: MIC. As to the method:
as §1, §2

Assay [5] has as its system Klebsiella pneumoniae ATCC 13833. Nature of the assay: microbe, parasite or virus in culture. The note with it: K. pneumoniae ATCC 13833; for Potentiation fold: ratio MICcompound/MICcompound+polymyxin E; for MIC in presence of colistin: with 0.25xMIC polymyxin E1 (0.12 mg/L); for MIC: Klebsiella pneumoniae, ATCC13833, compound alone, read-out: MIC. As to the method:
as §1
(§3) Several methods were used to investigate the synergistic activity of the compounds, including (a) the determination of the MIC in the presence of a sub-inhibitory concentration of a suitable antibacterial agent, (b) the determination of the average FICI using a chequerboard analysis and (c) the time-kill curve analysis of a suitable agent (at a sub-inhibitory concentration) in the absence and presence of the pyrazolo[4,3-b]pyridin-6-carboxamide compound at a fixed concentration of 2 or 8 mg/L.
(§4) The MIC of the compound was determined alone and in the presence of a fixed and sub-inhibitory concentration of a suitable antibacterial agent of the polymyxin class, such as polymyxin E1 (colistin). The potentiation fold was computed as the ratio MICcompound/MICcompound+polymyxin E. Tested organisms included Escherichia coli CCUG^TKlebsiella pneumoniae ATCC 13833 and Acinetobacter baumannii ATCC 17978, which show a colistin MIC of 0.5, 0.5 and 1 mg/L, respectively.

The subject of assay [6] is Acinetobacter baumannii ATCC 17978. Nature of the assay: microbe, parasite or virus in culture. The note with it: A. baumannii ATCC 17978; for Potentiation fold: ratio MICcompound/MICcompound+polymyxin E; for MIC in presence of colistin: with 0.25xMIC polymyxin E1 (0.25 mg/L); for MIC: Acinetobacter baumannii, ATCC17978, compound alone, read-out: MIC. How it is done:
as §1, §3, §4

A further assay has as its system Escherichia coli CCUG^T. Nature of the assay: microbe, parasite or virus in culture. The note with it: E. coli CCUG^T; for Potentiation fold: ratio MICcompound/MICcompound+polymyxin E; for MIC in presence of colistin: with 0.25xMIC polymyxin E1 (0.12 mg/L); for MIC: Escherichia coli, compound alone, read-out: MIC. As to the method:
as §1, §3, §4

Each structure is given as a SMILES string.

Turning to `CCCCn1c(=O)c(C(=O)Nc2ccc(F)cc2)c(O)c2nn(C)cc21` [Iae, 4-(1-Butyl)-4,5-dihydro-N-(4-fluorophenyl)-7-hydroxy-2-methyl-5-oxo-2H-pyrazolo[4,3-b]pyridin-6-carboxamide], the MIC is 32 µg/mL in assay [1]; 128 µg/mL in assay [2]; 32 µg/mL in assay [3]; 128 µg/mL in assay [4]; more than 512 µg/mL in assay [5]; more than 512 µg/mL in assay [6]. Further, the MIC in the assay on Escherichia coli CCUG^T was more than 512 µg/mL. The figures for the Potentiation fold (in assay [5]; in assay [6]; with Escherichia coli CCUG^T) were not below 2, not below 16 and not below 2, respectively. Also, the “MIC in presence of colistin” value was 256 µg/mL in assay [5], 32 µg/mL in assay [6] and 256 µg/mL with Escherichia coli CCUG^T.
Consider `CCCCn1c(=O)c(C(=O)NC(C)(C)C)c(O)c2nn(C)cc21` [Iaf, 4-(1-Butyl)-4,5-dihydro-N-(1,1-dimethylethyl)-7-hydroxy-2-methyl-5-oxo-2H-pyrazolo[4,3-b]pyridin-6-carboxamide], for which the MIC in assay [1] was 512 µg/mL; in assay [2] it was 64 µg/mL; in assay [3] it was 64 µg/mL; in assay [4], 128 µg/mL; in assay [5], more than 512 µg/mL; in assay [6], more than 512 µg/mL. For the same molecule, the MIC in the assay with Escherichia coli CCUG^T was more than 512 µg/mL. The Potentiation fold in assay [5] is listed as not below 16; in assay [6], not below 8; in the assay with Escherichia coli CCUG^T, not below 16. In addition, the “MIC in presence of colistin” value was found to be 32 µg/mL in assay [5], 64 µg/mL in assay [6] and 32 µg/mL in the assay on Escherichia coli CCUG^T.
On to `CCCCn1c(=O)c(C(=O)NC2CCCCCCC2)c(O)c2nn(C)cc21` [Is, 4-(1-Butyl)-N-cyclooctyl-4,5-dihydro-7-hydroxy-2-methyl-5-oxo-2H-pyrazolo[4,3-b]pyridin-6-carboxamide], for which the MIC was 512 µg/mL in assay [1]; 32 µg/mL in assay [2]; 32 µg/mL in assay [3]; 32 µg/mL in assay [4]; more than 512 µg/mL in assay [5]; more than 512 µg/mL in assay [6]. Further, the MIC in the assay with Escherichia coli CCUG^T is more than 512 µg/mL. The Potentiation fold (in assay [5]; in assay [6]; in the assay on Escherichia coli CCUG^T) was not below 16 in each case. Moreover, the “MIC in presence of colistin” value (in assay [5]; in assay [6]; in the assay on Escherichia coli CCUG^T) was 32 µg/mL in each case.
Take `CCCCn1c(=O)c(C(=O)NC2CCCc3ccccc32)c(O)c2nn(C)cc21` (centres unmarked) [It, 4-(1-Butyl)-4,5-dihydro-7-hydroxy-2-methyl-5-oxo-N-(1,2,3,4-tetrahydro-1-naphthyl)-2H-pyrazolo[4,3-b]pyridin-6-carboxamide]: the MIC in assay [1] is 64 µg/mL; in assay [2], 32 µg/mL; in assay [3] it was 64 µg/mL; in assay [4], 32 µg/mL; in assay [5] it was more than 512 µg/mL; in assay [6], more than 512 µg/mL. Also, the MIC in the assay on Escherichia coli CCUG^T was more than 512 µg/mL. Besides, the Potentiation fold in assay [5] is on record as not below 32; in assay [6], not below 32; in the assay with Escherichia coli CCUG^T, not below 16. Besides, the “MIC in presence of colistin” value in assay [5] was determined as 16 µg/mL; in assay [6], 16 µg/mL; in the assay with Escherichia coli CCUG^T it was 32 µg/mL.
Take `CC(C)n1c(=O)c(C(=O)NC2CCCCCCC2)c(O)c2nn(C)cc21` [Iz, N-Cyclooctyl-4,5-dihydro-7-hydroxy-2-methyl-5-oxo-4-(2-propyl)-2H-pyrazolo[4,3-b]pyridin-6-carboxamide]: the MIC in assay [1] is 64 µg/mL; in assay [2] it was 32 µg/mL; in assay [3], 16 µg/mL; in assay [4], 32 µg/mL; in assay [5], more than 512 µg/mL; in assay [6] it was more than 512 µg/mL. Further, in the assay with Escherichia coli CCUG^T, the MIC is more than 512 µg/mL. In addition, the Potentiation fold is recorded as not below 32 in assay [5], not below 64 in assay [6] and not below 64 in the assay with Escherichia coli CCUG^T. In addition, the entries for the “MIC in presence of colistin” value (in assay [5]; in assay [6]; in the assay with Escherichia coli CCUG^T) were 16 µg/mL, 8 µg/mL and 8 µg/mL, respectively.

(Values after patent US12358919B2, “Antibacterial compounds” (Universita' degli Studi di Siena, priority 2019, dated 2025).)
